Series [1] concerns Acetic acid induced writhing in mice. Kind of series: Acetic acid induced writhing (peripheral analgesic model). Format: in vivo, albino mice. How it is done: (§1) Analgesic and anti-inflammatory activity studies for crude drug powders or extracts and formulations there off were carried out in known animal models. Central (formalin-induced model) and peripheral (acetic acid induced model) analgesic activities were studied in albino mice, while wistar rats were used for acute (carrageenan induced paw edema model) and sub-acute (turpentine oil-induced granuloma pouch model) anti-inflammatory activity. Suitable positive and negative controls were used for the studies. The data obtained is statistically significant (P value<0.05) and reproducible.
The total number of writhings following intra-peritoneal administration of 0.6% acetic acid, 10 ml/Kg body weight was recorded for 20 minutes, starting 10 minutes after injection. The animals were pre-treated with test samples (100, 200 and 400 mg/Kg p.o.) 30 minutes prior to above treatment, simultaneously using Aspirin (30 mg/kg p.o.) as a positive control.
On the technique in general: In writhing tests, fewer writhes than in controls are read as antinociception.

Series [2] has as its system Carrageenan induced rat paw edema. The series can be described thus: Carrageenan induced rat paw edema (acute anti-inflammatory). The format is in vivo, wistar rats. To be noted: anti-inflammatory studies, model not specified. The method, then:
as §1
Various doses of test sample (100, 200 and 400 mg/Kg p.o.) and standard Indomethacin (10 mg/kg p.o.) were administered to different groups of rats. Acute inflammation was induced half an hour after the above treatment by injection of 0.1 ml of freshly prepared 1% (in water) suspension of Carrageenan sodium in sub-planter region of rat right hind paw. Paw volume was measured by plethysmographic method initially and then at 1, 2, 3, 4, 24, 48 and 72 hrs after carrageenan injection.

The subject of another series is symptomatic OA knees. The series can be described thus: Phase II 24-week comparator controlled trial of equivalence. The format is in vivo, patients. More on the design: W_DIFF, mean change between baseline and completion (Mean ± SD) / W_TOTAL, mean change between baseline and completion (Mean ± SD) / W_PAIN, mean change between baseline and completion (Mean ± SD) / W_STIFF, mean change between baseline and completion (Mean ± SD): scale not given here. To be noted: 24 weeks. The source says: • Phase II, Randomized, double blind, comparator (Celecoxib & Glucosamine) controlled, multicentric trial of equivalence. • Study Duration-24 weeks • Sample size (statistically powered 80% with α<0.05)—440 patients with symptomatic OA knees • 4 arm-2 Ayurvedic Interventions (C, C+) Celecoxib & Glucosamine, parallel efficacy study • 110 patients in each arm • No rescue medication permitted

Series [3] concerns human OA cartilage explants. Kind of series: Glycosaminoglycan (GAG) release from human OA cartilage explants. Format: cell-based. To be noted: for Percent control GAG release: control = 100%. How it is done:
Aqueous extracts of each capsule were freshly prepared as required. Contents of each capsule were solubilized in distilled water (10 mG/mL) by limited autoclaving. Each extract was filter sterilized prior to addition to cartilage explants at the required final concentration. This method of herbal extract preparation gave reproducible sterility and biological activity (Sumantran et al, 2007).
Patients (age 55-75 years) suffered from chronic osteoarthritis (OA) for 5-15 years prior to knee replacement surgery. Cartilage integrity was recorded by macroscopic and microscopic examination, using the Outerbridge scale. Only non-calcified, grade 1-2 articular cartilage from the lateral femoral condyles was used (Outerbridge 1961).
OA cartilage explants were cultured as described earlier (Sumantran et al, 2007). Briefly, explants were treated for 24 hours with/without sterile aqueous extracts of each capsule, and re-fed with growth media without herbal extract every two days for eight days. Conditioned media (CM) samples from each explant were collected prior to each re-feed. All CM samples per OA patient were thawed and assayed for GAG and NO levels simultaneously. Aggrecan assays were done after analysis of the GAG release data.
Total GAG levels in CM samples were measured by the dimethylmethylene blue assay using Chondroitin sulphate as a standard (Hoemann et al, 2002). NO levels in CM samples were estimated using the Griess reagent.
GAG content is expressed as microgram equivalents of Chondroitin sulphate. NO is expressed in micromoles/mG of explant/mL of CM. Units of Aggrecan are micrograms/mG of explant/mL of CM. Each marker is measured at each time point for each CM sample derived from each patient.
Levels of GAG, NO, or aggrecan levels in CM samples from explants at each time, point, per patient, treated with/without drug; were tested for statistical significance at the 95% confidence level using the Students 2 tailed t-test for paired samples. We calculated the effect of drug extracts in each CM sample, at each time point, per patient sample; using the ratio shown below:
Long-term versus Short-term activity: Long-term chondroprotective or anti-inflammatory activity is the ability of a drug to cause a statistically significant decrease in levels of GAG, aggrecan, or NO release by OA cartilage explants, relative to controls. This effect must be observed for at least 3 of the 4 time points during in vitro culture. Short-term activity is similar, but is detected at only 1 or 2 of the 4 time points tested.
In explant model of OA cartilage damage, GAG released by cartilage explants for 5 time points after a 24 hour drug treatment was measured. The effect on GAG release from cartilage explants of six OA patients treated with/without aqueous extracts of formulations C and C+G (100 microg/mLeach) was studied. […] Glucosamine and celecoxib each caused a statistically significant, 25% decrease in GAG release at time point 4, compared to controls.

The subject of another series is OA cartilage explants. Kind of series: Nitric oxide (NO) release by OA cartilage explants. The format is cell-based, human.
Series [4] concerns symptomatic knee osteoarthritis. Kind of series: 16-week randomized double blind placebo and comparator controlled trial (NMITLI OA stage I/2). Format: in vivo, patients. The method, then:
NMITLI OA stage I/2: The said formulation was evaluated in a randomized double blind placebo controlled, multicentric 16 week clinical trial in 245 patients with symptomatic knee osteoarthritis. This was This was a 7 arm exploratory study, aimed to evaluate the efficacy and safety of 5 multiplant formulations using Shunthi-Guduchi as a common platform formulation in all. Glucosamine was the positive comparator.
Glucosamine was the positive comparator in this study.
The clinical trials are conducted on the following basis: • Randomized, Double Blind, parallel efficacy, Placebo & Comparator controlled study • 245 patients in a 7 arm (5 ayurvedic arms coded as A-E, placebo-1, Glucosamine-1) study of 16 weeks duration. • 35 patients in each arm • Monitored pain rescue medication (oral paracetamol) permitted on SOS basis • Intent to treat analysis with last observation carried forward • All arms well-matched at baseline for demographics and efficacy.

Series [5] deals with human OA cartilage explants. The series can be described thus: Aggrecan release from human OA cartilage explants. The format is cell-based.
Source text: The kit uses a mixture of monoclonal antibodies to different epitopes of aggrecan, thereby ensuring sensitive and rapid estimation of aggrecan.
Series [6] deals with active Rheumatoid arthritis (RA). The series can be described thus: NMITLI RA stage I/1, 24-week study. Format: in vivo, patients. Conditions: week 24. The source says:
NMITLI RA STAGE I/1: A randomized double blind comparator controlled parallel efficacy multicentric 24-week study in patients with active Rheumatoid arthritis (RA). In this study, formulation B and a proprietary ayurvedic formulation were compared to Hydroxychloroquine (HCQS), which is a popular DMARD (Disease Modifying Anti Rheumatoid Drug) in modern medicine rheumatology. As a complex painful inflammatory polyarticular disease, several efficacy variables, both clinical and laboratory were used to evaluate efficacy—Joint Counts for pain/tenderness and swelling, pain VAS, Patients Global assessments by the patient and physician, Health Assessment Questionnaire (a validated instrument for functional ability for Indian use), ESR, CRP and cytokines markers.
At baseline, all the groups were matched well in several demographic and efficacy measures. […] The overall safety of Ayurvedic formulations was better than HCQS.

Series [7] relates to arachidonic acid (AA) induced platelet activation in human whole blood. Conditions: read-out: anti-platelet activity IC(50); cited from earlier work.
Another series concerns mouse bone marrow. Conditions: test drugs 2000 mg/kg oral; cyclophosphamide 75 mg/kg i.p.
Where [8] appears, read: time point 3, controls set at 100%.
Where [9] appears, read: time point 4, controls set at 100%.

Consider five compounds from patent US20120021077A1, “SYNERGISTIC HERBAL COMPOSITION FOR TREATMENT OF RHEUMATIC AND MUSCULO-SKELETAL DISORDERS (RMSDS)” (priority 2007, published 2012).

pIC50: −log10 of the molar value. Where two headings read alike, the source gives them in different places.

Procedure for mouse bone marrow: Assessment of genotoxicity using mouse bone marrow micronucleus test and Salmonella reverse mutation test was carried out according to OECD guidelines No. 474 and 471 respectively.
Genotoxicity study was carried out using mammalian bone marrow micronucleus test with the limit test at a single dose level of 2000 mg/kg body weight. The test drug was suspended in 1% CMC (carboxy methyl cellulose) and administered orally to the experimental animals. Control animals received 1% CMC alone. […] Treatment was given for two consecutive days at 0 h and 24 h. […] All the mice were sacrificed at 6th hr. after the last treatment (30th hr. after first dose) and femur bones were excised and bone marrow contents were flushed with fetal calf serum. Bone marrow cells were centrifuged spread as a smear on glass slide and stained using Giemsa stain and May-Grunwald stain. […] Minimum 2000 PCEs were scored from each animal. All the slides were coded prior to scoring and decoded after completion of scoring.

On to `Cc1ccc(-c2cc(C(F)(F)F)nn2-c2ccc(S(N)(=O)=O)cc2)cc1` [Celecoxib], for which, in series [1], the “dose with significant peripheral analgesic activity” value stood at 400 mg/kg. Further, the “minimum dose with significant anti-inflammatory activity” value in series [2] is reported as 200 mg/kg. Besides, in the series with symptomatic OA knees, the “PainVAS, mean change between baseline and completion (Mean ± SD)” value is on record as −1.82 ± 1.95; the “W_DIFF, mean change between baseline and completion (Mean ± SD)” value is −6.93 ± 9.88; the “W_PAIN, mean change between baseline and completion (Mean ± SD)” value was −1.89 ± 3.01; the “W_STIFF, mean change between baseline and completion (Mean ± SD)” value is on record as −0.34 ± 1.91. Besides, the “W_TOTAL, mean change between baseline and completion (Mean ± SD)” value in the series with symptomatic OA knees is reported as −9.17 ± 13.05. Besides, the “Percent control GAG release” value in [3] (time point 1, 100 microg/mL) is 90.24 ± 25.71%. In series [3] (time point 2, 100 microg/mL), the “Percent control GAG release” value is 84.87 ± 28.54%. The “Percent control GAG release” value in [3] (time point 3, 100 microg/mL) is 87.83 ± 28.99%. Further, the “decrease in GAG release compared to controls” value in series [3] (time point 4) is recorded as 25%. In series [3] (time point 4, 100 microg/mL), the “Percent control GAG release” value is 74.81 ± 31.83%. Also, the “Percent control GAG release” value in series [3] (time point 5, 100 microg/mL) worked out at 89.42 ± 31.98%.
Turning to `N[C@H]1C(O)O[C@H](CO)[C@@H](O)[C@@H]1O` (stereo partly drawn) [Glucosamine], the “Nitric oxide (NO) release, decrease” value in the series on OA cartilage explants is reported as “No significant”. Further, in the series with OA cartilage explants (listed as gulosamine), the “Nitric oxide (NO) release, decrease” value is reported as “did not significantly decrease”. In addition, in series [1], the “dose with significant peripheral analgesic activity” value worked out at 400 mg/kg. Further, the “minimum dose with significant anti-inflammatory activity” value in series [2] is recorded as “devoid of any anti-inflammatory activity”. Also, in the series on symptomatic OA knees, the “PainVAS, mean change between baseline and completion (Mean ± SD)” value is listed as −2.45 ± 2.23; the “W_DIFF, mean change between baseline and completion (Mean ± SD)” value is given as −8.12 ± 10.89; the “W_PAIN, mean change between baseline and completion (Mean ± SD)” value is recorded as −2.72 ± 3.26; the “W_STIFF, mean change between baseline and completion (Mean ± SD)” value is on record as −0.49 ± 1.61. Further, the “W_TOTAL, mean change between baseline and completion (Mean ± SD)” value with symptomatic OA knees is listed as −11.33 ± 13.75. The “Glycosaminoglyan (GAG) release, decrease” value in [3] (long term = at least 3 of 4 time points, short term = 1 or 2) was “Short term”. Also, in series [3] (time point 1, 100 microg/mL), the “Percent control GAG release” value is listed as 118.96 ± 34.74%. Further, in series [3] (time point 2, 100 microg/mL), the “Percent control GAG release” value is 91.70 ± 16.55%. The “mean decrease of GAGs release relative to control explants” value in series [3] (time point 3) was 26%. Further, the “Percent control GAG release” value in [3] (time point 3, 100 microg/mL) is on record as 86.52 ± 19.36%. Further, the “mean decrease in levels of GAG and aggrecan release relative to controls” value in [3] (time point 3, both markers) is recorded as 25-35%. Moreover, the “levels of GAG released compared to controls (FIG. 1)” value in [3] (setting [8]) was 73.72±9.69%. Besides, in series [3] (time point 4), the “decrease in GAG release compared to controls” value is 25% and the “mean decrease of GAGs release relative to control explants” value was 20%. For the same compound, the “Percent control GAG release” value in series [3] (time point 4, 100 microg/mL) came out at 76.01 ± 19.96%. For the same compound, the “levels of GAG released compared to controls (FIG. 2)” value in [3] (setting [9]) stood at 81.38±14.35%. In addition, the “Percent control GAG release” value in series [3] (time point 5, 100 microg/mL) came out at 87.15 ± 20.83%. In addition, the “Daily consumption Paracetamol, Mean, AVR_TOTAL” value in [4] (all visits) amounted to 1.7950. For the same compound, in series [4] (baseline), the “PATG (1-5 grades), baseline mean” value is recorded as 3.52 grades; the “PainVAS (0-100 mm), baseline mean” value is recorded as 64.8 mm; the “WOMAC Pain (0-20 score), baseline mean” value turned out to be 8.0 score. In [4] (over 16 weeks), the “PATG, mean of percent change from baseline” value was determined as 15.4%; the “PainVAS, mean of percent change from baseline” value was 21%; the “WOMAC Pain, mean of percent change from baseline” value is recorded as 14.2%. For the same compound, the “Daily consumption Paracetamol, Mean, AVR_PAR3” value in [4] (visit 3) was 2.0110. The “Daily consumption Paracetamol, Mean, AVR_PAR4” value in series [4] (visit 4) stood at 1.9038. Besides, the “Daily consumption Paracetamol, Mean, AVR_PAR5” value in series [4] (visit 5) is listed as 1.9863. Besides, in series [4] (visit 6), the “Daily consumption Paracetamol, Mean, AVR_PAR6” value is recorded as 1.8846. For the same compound, in [4] (visit 7), the “Daily consumption Paracetamol, Mean, AVR_PAR7” value is 1.3516. Besides, the “Aggrecan (AGG) release, decrease” value in series [5] is recorded as “Significant”. For the same compound, the “mean decrease of Aggrecan release relative to control explants” value in [5] (time point 3) stood at 34%. Also, the “levels of aggrecan released compared to controls (FIG. 1)” value in series [5] (setting [8]) is 66.13±21.81%. Moreover, the “Aggrecan release by cartilage explants” value in series [5] (time point 4, 5 patients) is reported as “not significantly decreased”. Moreover, the “levels of aggrecan released compared to controls (FIG. 2)” value in series [5] (setting [9]) came out at 86.07±21.71%.
Take `CCN(CCO)CCCC(C)Nc1ccnc2cc(Cl)ccc12` (stereo not drawn) [HCQS, Hydroxychloroquine]: in series [6], the “efficacy in RA, individual group analysis” value is recorded as “several significant improvements”.
Consider `CC(=O)Oc1ccccc1C(=O)O` [aspirin], for which the pIC50 in series [7] is 4.70.
As for `O=P1(N(CCCl)CCCl)NCCCO1` (stereo not drawn) [cyclophosphamide], in the series with mouse bone marrow, the “micronucleus induction / mutagenic effect” value is given as “significant increase in percent micronuclei: PCE ratio”.
